Earlier results on one substance are cited in patent US20080279776A1, “Photosensitizers and MRI Enhancers” (Photo Diagnostic Devices (PDD) Limited, priority 2005, published 2008).

For this series the following is noted: readings taken as a prototype.

For “18-carboxy-20-(carboxymethyl)-8-ethenyl-13-ethyl-2,3-dihydro-3,7,12,17-tetramethyl-21H,23H-porphine-2-propanoic acid [Chlorine-e6]”, the LD10 is recorded as 119 mg/kg weight and the LD50 is listed as 160 mg/kg weight.
